Laboratory results from PubChem BioAssay AID1745844 (Carcinogenic Potency Database (CPDB), 2022).
“And” between values parts separate entries of the source, which are not always exact repeats. Equal entries are not always repeated. The source made the active and inactive calls. How the calls were made is not given here.

Tested on: rodent lifetime carcinogenesis bioassay, tumor incidence TD50
Assay: carcinogenic potency in animals, long-term in vivo studies, CPDB compilation (AID 1745844)

COc1cc2c(cc1N)oc1ccccc12 was tested, and the TD50 (rat, strain Fischer, females, in feed, site: any site (literature study), lesion: malignant tumor, dosed 75 weeks, study length 75 weeks) was 33.1 mg/kg/day, the TD50 (rat, strain Fischer, females, in feed, site: external auditory canal, lesion: squamous-cell carcinoma, dosed 75 weeks, study length 75 weeks) was 43.9 mg/kg/day and the TD50 (rat, strain Fischer, females, in feed, site: mammary gland, lesion: adenocarcinoma, dosed 75 weeks, study length 75 weeks) was 205 mg/kg/day. The TD50 (rat, strain Fischer, females, in feed, site: urinary bladder, lesion: several types, types named in the paper, dosed 75 weeks, study length 75 weeks) was 25.7 mg/kg/day, the TD50 (rat, strain Fischer, females, in feed, site: urinary bladder, lesion: transitional-cell carcinoma, dosed 75 weeks, study length 75 weeks) was 43.9 mg/kg/day and the TD50 (rat, strain Fischer, males, in feed, site: any site (literature study), lesion: malignant tumor, dosed 75 weeks, study length 75 weeks) was 78.2 mg/kg/day. It also gave a TD50 (rat, strain Fischer, males, in feed, site: external auditory canal, lesion: squamous-cell carcinoma, dosed 75 weeks, study length 75 weeks) of 78.2 mg/kg/day, a TD50 (rat, strain Fischer, males, in feed, site: urinary bladder, lesion: several types, types named in the paper, dosed 75 weeks, study length 75 weeks) of 26.4 mg/kg/day and a TD50 (rat, strain Fischer, males, in feed, site: urinary bladder, lesion: transitional-cell carcinoma, dosed 75 weeks, study length 75 weeks) of 78.2 mg/kg/day. For the same compound, the TD50 (rat, strain Sprague-Dawley, females, in feed, site: any site (literature study), lesion: malignant tumor, dosed 75 weeks, study length 75 weeks) was 25.7 mg/kg/day, the TD50 (rat, strain Sprague-Dawley, females, in feed, site: external auditory canal, lesion: squamous-cell carcinoma, dosed 75 weeks, study length 75 weeks) was 61.9 mg/kg/day and the TD50 (rat, strain Sprague-Dawley, females, in feed, site: mammary gland, lesion: adenocarcinoma, dosed 75 weeks, study length 75 weeks) was 61.9 mg/kg/day. It also gave a TD50 (rat, strain Sprague-Dawley, females, in feed, site: urinary bladder, lesion: several types, types named in the paper, dosed 75 weeks, study length 75 weeks) of 43.9 mg/kg/day, a TD50 (rat, strain Sprague-Dawley, females, in feed, site: urinary bladder, lesion: transitional-cell carcinoma, dosed 75 weeks, study length 75 weeks) of 205 mg/kg/day and a TD50 (rat, strain Sprague-Dawley, males, in feed, site: any site (literature study), lesion: malignant tumor, dosed 75 weeks, study length 75 weeks) of 78.2 mg/kg/day. For the same compound, the TD50 (rat, strain Sprague-Dawley, males, in feed, site: kidney, lesion: squamous-cell carcinoma, dosed 75 weeks, study length 75 weeks) was 164 mg/kg/day, the TD50 (rat, strain Sprague-Dawley, males, in feed, site: urinary bladder, lesion: transitional-cell papilloma, dosed 75 weeks, study length 75 weeks) was 164 mg/kg/day and the TD50 (rat, strain Wistar, females, in feed, site: any site (literature study), lesion: malignant tumor, dosed 75 weeks, study length 75 weeks) was 43.9 mg/kg/day. The TD50 (rat, strain Wistar, females, in feed, site: liver, lesion: cystadenoma, dosed 75 weeks, study length 75 weeks) was 205 mg/kg/day, the TD50 (rat, strain Wistar, females, in feed, site: mammary gland, lesion: adenocarcinoma, dosed 75 weeks, study length 75 weeks) was 97.7 mg/kg/day and the TD50 (rat, strain Wistar, females, in feed, site: urinary bladder, lesion: several types, types named in the paper, dosed 75 weeks, study length 75 weeks) was 43.9 mg/kg/day. It also gave a TD50 (rat, strain Wistar, females, in feed, site: urinary bladder, lesion: transitional-cell carcinoma, dosed 75 weeks, study length 75 weeks) of 97.7 mg/kg/day, a TD50 (rat, strain Wistar, males, in feed, site: any site (literature study), lesion: benign tumor, dosed 84 weeks, study length 84 weeks) of 53.3 mg/kg/day and a TD50 (rat, strain Wistar, males, in feed, site: any site (literature study), lesion: malignant tumor, dosed 75 weeks, study length 75 weeks) of 26.4 mg/kg/day. The carcinogen call (rat, strain Wistar, males, in feed, site: any site (literature study), lesion: malignant tumor, dosed 84 weeks, study length 84 weeks) was “positive”, the TD50 (rat, strain Wistar, males, in feed, site: external auditory canal, lesion: squamous-cell carcinoma, dosed 75 weeks, study length 75 weeks) was 78.2 mg/kg/day and the TD50 (rat, strain Wistar, males, in feed, site: kidney, lesion: squamous-cell carcinoma, dosed 75 weeks, study length 75 weeks) was 164 mg/kg/day. The TD50 (rat, strain Wistar, males, in feed, site: urinary bladder, lesion: several types, types named in the paper, dosed 75 weeks, study length 75 weeks) was 35.2 mg/kg/day, the carcinogen call (rat, strain Wistar, males, in feed, site: urinary bladder, lesion: several types, types named in the paper, dosed 84 weeks, study length 84 weeks) was “positive” and the TD50 (rat, strain Wistar, males, in feed, site: urinary bladder, lesion: transitional-cell carcinoma, dosed 75 weeks, study length 75 weeks) was 78.2 mg/kg/day.
With O=c1ccc2ccccc2o1 the TD50 (hamster, strain Syrian Golden, females, in feed, site: any site (literature study), lesion: several types, types named in the paper, dosed 95 weeks, study length 104 weeks) was 5520 mg/kg/day (inactive), the carcinogen call (hamster, strain Syrian Golden, females, in feed, site: liver, lesion: one or several types, types not named, dosed 95 weeks, study length 104 weeks) was “negative (inactive)” and the TD50 (hamster, strain Syrian Golden, males, in feed, site: any site (literature study), lesion: several types, types named in the paper, dosed 104 weeks, study length 104 weeks) was 603 mg/kg/day (inactive). For the same compound, the carcinogen call (hamster, strain Syrian Golden, males, in feed, site: liver, lesion: one or several types, types not named, dosed 104 weeks, study length 104 weeks) was “negative (inactive)”, the TD50 (mouse, strain B6C3F1, females, by gavage, site: any site (literature study), lesion: several types, types named in the paper, dosed 103 weeks, study length 104 weeks) was 198 mg/kg/day and the TD50 (mouse, strain B6C3F1, females, by gavage, site: forestomach, lesion: squamous-cell carcinoma + squamous-cell papilloma, dosed 103 weeks, study length 104 weeks) was 42000 mg/kg/day. The TD50 (mouse, strain B6C3F1, females, by gavage, site: forestomach, lesion: squamous-cell papilloma, dosed 103 weeks, study length 104 weeks) was 12200 mg/kg/day, the TD50 (mouse, strain B6C3F1, females, by gavage, site: liver + lung, lesion: hepatocellular adenoma + hepatocellular carcinoma + alveolar/bronchiolar adenoma + alveolar/bronchiolar carcinoma, dosed 103 weeks, study length 104 weeks) was 85.5 mg/kg/day and the TD50 (mouse, strain B6C3F1, females, by gavage, site: liver, lesion: hepatocellular adenoma + hepatoblastoma + hepatocellular carcinoma, dosed 103 weeks, study length 104 weeks) was 65.7 mg/kg/day. For the same compound, the TD50 (mouse, strain B6C3F1, females, by gavage, site: liver, lesion: hepatocellular adenoma + hepatocellular carcinoma, dosed 103 weeks, study length 104 weeks) was 65.7 mg/kg/day, the TD50 (mouse, strain B6C3F1, females, by gavage, site: liver, lesion: hepatocellular adenoma, dosed 103 weeks, study length 104 weeks) was 72.8 mg/kg/day and the TD50 (mouse, strain B6C3F1, females, by gavage, site: lung, lesion: alveolar/bronchiolar adenoma + alveolar/bronchiolar carcinoma, dosed 103 weeks, study length 104 weeks) was 135 mg/kg/day. For the same compound, the TD50 (mouse, strain B6C3F1, females, by gavage, site: lung, lesion: alveolar/bronchiolar adenoma, dosed 103 weeks, study length 104 weeks) was 179 mg/kg/day, the TD50 (mouse, strain B6C3F1, females, by gavage, site: lung, lesion: alveolar/bronchiolar carcinoma, dosed 103 weeks, study length 104 weeks) was 825 mg/kg/day and the TD50 (mouse, strain B6C3F1, males, by gavage, site: all sites, lesion: histiocytic sarcoma + malignant lymphoma, histiocytic type + malignant lymphoma, mixed type + malignant lymphoma, lymphocytic, dosed 103 weeks, study length 104 weeks) was 600 mg/kg/day. For the same compound, the TD50 (mouse, strain B6C3F1, males, by gavage, site: any site (literature study), lesion: several types, types named in the paper, dosed 103 weeks, study length 104 weeks) was 461 mg/kg/day, the TD50 (mouse, strain B6C3F1, males, by gavage, site: forestomach, lesion: squamous-cell carcinoma + squamous-cell papilloma, dosed 103 weeks, study length 104 weeks) was 152 mg/kg/day and the TD50 (mouse, strain B6C3F1, males, by gavage, site: forestomach, lesion: squamous-cell papilloma, dosed 103 weeks, study length 104 weeks) was 179 mg/kg/day. It also gave a TD50 (mouse, strain B6C3F1, males, by gavage, site: liver, lesion: hepatoblastoma, dosed 103 weeks, study length 104 weeks) of 632 mg/kg/day, a TD50 (mouse, strain B6C3F1, males, by gavage, site: lung, lesion: alveolar/bronchiolar adenoma + alveolar/bronchiolar carcinoma, dosed 103 weeks, study length 104 weeks) of 241 mg/kg/day and a TD50 (mouse, strain B6C3F1, males, by gavage, site: lung, lesion: alveolar/bronchiolar adenoma, dosed 103 weeks, study length 104 weeks) of 265 mg/kg/day. For the same compound, the TD50 (mouse, strain B6C3F1, males, by gavage, site: pancreatic islets, lesion: islet-cell adenoma, dosed 103 weeks, study length 104 weeks) was 1310 mg/kg/day, the TD50 (mouse, strain Charles River CD1, females, in feed, site: liver, lesion: several types, types named in the paper, dosed 109 weeks, study length 109 weeks) was 176 mg/kg/day (inactive) and the TD50 (mouse, strain Charles River CD1, females, in feed, site: lung, lesion: adenocarcinoma, dosed 109 weeks, study length 109 weeks) was 3140 mg/kg/day (inactive). The TD50 (mouse, strain Charles River CD1, females, in feed, site: lung, lesion: adenoma, dosed 109 weeks, study length 109 weeks) was 4500 mg/kg/day (inactive), the carcinogen call (mouse, strain Charles River CD1, males, in feed, site: liver, lesion: several types, types named in the paper, dosed 101 weeks, study length 101 weeks) was “negative (inactive)” and the TD50 (mouse, strain Charles River CD1, males, in feed, site: lung, lesion: adenocarcinoma, dosed 101 weeks, study length 101 weeks) was 1020 mg/kg/day (inactive). For the same compound, the carcinogen call (mouse, strain Charles River CD1, males, in feed, site: lung, lesion: adenoma, dosed 101 weeks, study length 101 weeks) was “negative (inactive)”, the TD50 (rat, strain Fischer 344, females, by gavage, site: any site (literature study), lesion: several types, types named in the paper, dosed 103 weeks, study length 104 weeks) was 456 mg/kg/day and the TD50 (rat, strain Fischer 344, females, by gavage, site: kidney, lesion: tubule adenoma, dosed 103 weeks, study length 104 weeks) was 1410 mg/kg/day and 930 mg/kg/day. For the same compound, the TD50 (rat, strain Fischer 344, males, by gavage, site: any site (literature study), lesion: several types, types named in the paper, dosed 39 weeks, study length 104 weeks) was 210 mg/kg/day, the TD50 (rat, strain Fischer 344, males, by gavage, site: any site (literature study), lesion: several types, types named in the paper, dosed 65 weeks, study length 104 weeks) was 12.2 mg/kg/day and the TD50 (rat, strain Fischer 344, males, by gavage, site: any site (literature study), lesion: several types, types named in the paper, dosed 101 weeks, study length 104 weeks) was 12 mg/kg/day. The TD50 (rat, strain Fischer 344, males, by gavage, site: forestomach, lesion: squamous-cell papilloma, dosed 101 weeks, study length 104 weeks) was 142 mg/kg/day, the TD50 (rat, strain Fischer 344, males, by gavage, site: kidney, lesion: adenoma + tubule adenoma + tubule carcinoma, dosed 101 weeks, study length 104 weeks) was 13.9 mg/kg/day and the TD50 (rat, strain Fischer 344, males, by gavage, site: kidney, lesion: adenoma + tubule adenoma, dosed 101 weeks, study length 104 weeks) was 226 mg/kg/day and 13.9 mg/kg/day. It also gave a TD50 (rat, strain Fischer 344, males, by gavage, site: kidney, lesion: tubule adenoma, dosed 65 weeks, study length 104 weeks) of 67.6 mg/kg/day, a TD50 (rat, strain Fischer 344, males, by gavage, site: kidney, lesion: tubule carcinoma, dosed 101 weeks, study length 104 weeks) of 151 mg/kg/day and a TD50 (rat, strain Fischer 344, males, by gavage, site: liver, lesion: hepatocellular adenoma + hepatoblastoma + hepatocellular carcinoma, dosed 65 weeks, study length 104 weeks) of 171 mg/kg/day. For the same compound, the TD50 (rat, strain Fischer 344, males, by gavage, site: pituitary gland, lesion: pars distalis adenoma, dosed 101 weeks, study length 104 weeks) was 19.7 mg/kg/day, the TD50 (rat, strain Fischer 344, males, by gavage, site: testis, lesion: interstitial-cell adenoma, dosed 39 weeks, study length 104 weeks) was 19.8 mg/kg/day and the TD50 (rat, strain Fischer 344, males, by gavage, site: testis, lesion: interstitial-cell adenoma, dosed 65 weeks, study length 104 weeks) was 8.22 mg/kg/day. It also gave a TD50 (rat, strain Fischer 344, males, by gavage, site: testis, lesion: interstitial-cell adenoma, dosed 101 weeks, study length 104 weeks) of 3.62 mg/kg/day, a TD50 (rat, strain Sprague-Dawley, females, in feed, site: liver, lesion: cholangiocarcinoma, dosed 110 weeks, study length 110 weeks) of 767 mg/kg/day and a TD50 (rat, strain Sprague-Dawley, females, in feed, site: liver, lesion: several types, types named in the paper, dosed 110 weeks, study length 110 weeks) of 1440 mg/kg/day. It also gave a TD50 (rat, strain Sprague-Dawley, males, in feed, site: liver, lesion: cholangiocarcinoma, dosed 104 weeks, study length 104 weeks) of 302 mg/kg/day and a TD50 (rat, strain Sprague-Dawley, males, in feed, site: liver, lesion: several types, types named in the paper, dosed 104 weeks, study length 104 weeks) of 365 mg/kg/day.
